The results in this text go back to ChEMBL document CHEMBL1123450, “A theoretical study of the binding of polychlorinated biphenyls (PCBs), dibenzodioxins, and dibenzofuran to human plasma prealbumin” (J Med Chem, 1986).

Structures are written as SMILES.

The experiment can be described thus: KPCB/ K352 ratio of the compound.
Turning to `Clc1cc(-c2cc(Cl)c(Cl)c(Cl)c2)cc(Cl)c1Cl`, the Ratio stood at 27.7.

For `O=C1C(Cl)=CC(=C2C=C(Cl)C(=O)C(Cl)=C2)C=C1Cl`, the Ratio was 2.92.

Turning to `Oc1c(I)cc(I)cc1I`, the Ratio came out at 33.8.

Consider `Oc1c(Cl)cc(-c2ccccc2)cc1Cl`, for which the Ratio was 45. The same measure for `Oc1c(Cl)cc(-c2ccc(Cl)cc2)cc1Cl`: 27.5; for `Oc1c(Cl)cc(-c2cc(Cl)c(O)c(Cl)c2)cc1Cl`: 45.5. The same measure for `Oc1ccc(-c2c(Cl)cc(Cl)cc2Cl)cc1`: 2.91; for `Oc1ccc(-c2cc(Cl)c(Cl)c(Cl)c2Cl)cc1`: 24.3; for `Oc1c(Cl)cc(Cl)cc1-c1ccccc1`: 1.
